Measurements as given in US20260176262A1, “KRAS INHIBITORS, PREPARATION METHOD THEREFOR, AND PHARMACEUTICAL USE THEREOF” (ABBISKO THERAPEUTICS CO., LTD., priority 2021, published 2026).
Like-named read-outs stand apart in the source and are kept apart here.

Legend:
AGS cell = assay: Anti-proliferative 2D CTG assay, AGS cells; assay type: cell-based; conditions: Homo sapiens, 72 h, AGS cells, incubated 3 days, CTG, read-out: AGS cell IC50
Protocol: When the cell confluence was about 80%, the cells were isolated with 0.25% trypsin. Isolated cells were resuspended in 5 mL fresh cell culture medium and centrifuged for cell collection. Meanwhile, the number of cells was also calculated. The cells were then suspended in culture medium of medium concentration. The cells were placed into a 96-well plate with 1000 cells/well for AGS and 1000 cells/well for GP2D. The 96-well plate was placed in an incubator at 37° C. and incubated overnight.
1.2 Day 1 Compound Treatment From the 10 mM stock solution, with a ratio of 1:5, 10-point serial dilutions were performed. The 10× medium containing the compound was transferred into corresponding wells of the 96 wells. The final maximum compound concentration was […] and the final DMSO concentration was 0.1%. The 96-well plate was placed in a 37° C. incubator, the AGS cells were incubated for 3 days, and the GP2D cells were incubated for 4 days.
50 μL/well of detection reagent (CTG) was added to the AGS cells, and the signal was read in an Envision machine.
The percent inhibition (%) at each compound concentration was calculated from the signal in the HPE and ZPE control wells and the fluorescence signal in the individual compound wells included in each assay plate. […] The compound concentration required for inhibitory concentration at 50% (IC50) was determined using a four-parameter logarithmic dose-response equation by testing the concentration of the compound and the inhibition percentage value. The endpoint value (IC50) of the reference compound was assessed in each experiment as a quality control measure. If the endpoint value is within three times the expected value, the experiment may be considered acceptable.

KRAS^G12D/cRAF = KRAS^G12D/cRAF (Homo sapiens, UniProt P01116, G12D); assay: KRAS G12D/cRAF binding test (Alphalisa); conditions: His-tagged KRAS G12D + GMPPNP, GST-tagged cRAF
Sequence of KRAS^G12D/cRAF (P01116 1-188 isoform P01116-2 G12D): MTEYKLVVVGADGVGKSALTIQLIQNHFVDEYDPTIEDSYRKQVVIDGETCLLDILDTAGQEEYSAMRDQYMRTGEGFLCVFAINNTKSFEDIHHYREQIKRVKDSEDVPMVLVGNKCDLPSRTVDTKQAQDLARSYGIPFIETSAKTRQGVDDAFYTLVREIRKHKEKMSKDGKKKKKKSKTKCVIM
Protocol: The compound was dissolved in 100% DMSO at a starting concentration of 5 mM and diluted in DMSO with a 3-fold serial dilution method for a total of 8 concentration points. 1 μL of the compound or DMSO at each concentration point was added into 99 μL of the experimental buffer to obtain 10× stock solution.
• 1) 4 μL of the working mixture solution of His-tagged KRAS^G12D and GMPPNP was added to the 384-well plate. • 2) The 10× compound stock solution or 1% DMSO was added to the 384-well plate. • 3) The plate was centrifuged at 1000 rpm for 1 minute. • 4) 4 μL of GST-tagged cRAF solution was added to the 384-well plate. • 5) The plate was centrifuged at 1000 rpm for 1 minute. • 6) The plate was incubated at room temperature for 15 minutes. • 7) 10 μL of detection working solution was added to the 384-well plate. • 8) The plate was centrifuged at 1000 rpm for 1 minute. • 9) The plate was incubated at room temperature for 60 minutes. • 10) The 384-well plate was placed into Envision and assay data was obtained.
The ratio for each compound concentration was calculated from the signal of the DMSO control group contained in each assay plate and the Alphalisa signal in each compound well. The compound concentration required for inhibitory concentration at 50% (IC50) was determined using a four-parameter logarithmic dose-response equation by testing the concentration of the compound and the value of the ratio. The endpoint value (IC50) of the reference compound was assessed in each experiment as a quality control measure. If the endpoint value is within three times the expected value, the experiment may be considered acceptable.

Row | Compound | IC50 (AGS cell; class symbols) [nM] | IC50 (KRAS^G12D/cRAF; class symbols) [nM] | IC50 (AGS cell; numeric values) [nM] | IC50 (KRAS^G12D/cRAF; numeric values) [nM]
1 | [2H]C([2H])([2H])OCC12CCC(CN(c3nc(OC[C@@]45CCCN4C[C@H](F)C5)nc4c(F)c(-c5cc(O)cc6cc(Cl)c(F)c(C#C)c56)ncc34)C1)N2 (stereo partly drawn) [Example 16, 7-chloro-5-ethynyl-6-fluoro-4-(8-fluoro-2-(((2R,7aS)-2-fluorotetrahydro-1H-pyrrolizin-7a(5H)-yl)methoxy)-4-(1-((methoxy-d3)methyl)-3,8-diazabicyclo [3.2.1]octan-3-yl)pyrido[4,3-d]pyrimidin-7-yl)naphthalen-2-ol] | 50 to 500 | > 500 |  | 
2 | [2H]C([2H])([2H])OCC12CCC(C)(CN(c3nc(OC[C@@]45CCCN4C[C@H](F)C5)nc4c(F)c(-c5cc(O)cc6ccc(F)c(C#C)c56)ncc34)C1)N2 (stereo partly drawn) [Example 18, 5-ethynyl-6-fluoro-4-(8-fluoro-2-(((2R,7aS)-2-fluorotetrahydro-1H-pyrrolizin-7a(5H)-yl)methoxy)-4-(1-((methoxy-d3)methyl)-5-methyl-3,8-diazabicyclo [3.2.1]octan-3-yl)pyrido[4,3-d]pyrimidin-7-yl)naphthalen-2-ol] | 50 to 500 | 50 to 500 |  | 
3 | C#Cc1c(F)ccc2cc(O)cc(-c3ncc4c(N5CC6CCC(CC)(C5)N6)nc(OC[C@@]56CCCN5C[C@H](F)C6)nc4c3F)c12 (stereo partly drawn) [Example 19, 4-(4-(1-ethyl-3,8-diazabicyclo[3.2.1]octan-3-yl)-8-fluoro-2-(((2R,7aS)-2-fluorotetrahydro-1H -pyrrolizin-7a(5H)-yl)methoxy)pyrido[4,3-d]pyrimidin-7-yl)-5-ethynyl-6-fluoronaphthalen-2-ol] | < 50 | 50 to 500 |  | 
4 | C#Cc1c(F)ccc2cc(O)cc(-c3ncc4c(N5CC6(C)CCC(C)(C5)N6)nc(OC[C@@]56CCCN5C[C@H](F)C6)nc4c3F)c12 [Example 20, 4-(4-(1,5-dimethyl-3,8-diazabicyclo[3.2.1]octan-3-yl)-8-fluoro-2-(((2R,7aS)-2-fluorotetrahydro-1H-pyrrolizin-7a(5H)-yl)methoxy)pyrido[4,3-d]pyrimidin-7-yl)-5-ethynyl-6-fluoronaphthalen-2-ol] | < 50 | 50 to 500 |  | 
5 | C#Cc1c(F)ccc2cc(O)cc(-c3ncc4c(N5CC6CCC(CC(F)F)(C5)N6)nc(OC[C@@]56CCCN5C[C@H](F)C6)nc4c3F)c12 (stereo partly drawn) [Example 21, 4-(4-(1-(2,2-difluoroethyl)-3,8-diazabicyclo[3.2.1]octan-3-yl)-8-fluoro-2-(((2R,7aS)-2-fluorotetrahydro-1H-pyrrolizin-7a(5H)-yl)methoxy)pyrido[4,3-d]pyrimidin-7-yl)-5-ethynyl-6-fluoronaphthalen-2-ol] | < 50 | 50 to 500 |  | 
6 | C#Cc1c(F)ccc2cc(O)cc(-c3ncc4c(N5CC6CCC(C(=O)O)(C5)N6)nc(OC[C@@]56CCCN5C[C@H](F)C6)nc4c3F)c12 (stereo partly drawn) [Example 22, 3-(7-(8-ethynyl-7-fluoro-3-hydroxynaphthalen-1-yl)-8-fluoro-2-(((2R,7aS)-2-fluorotetrahydro-1H-pyrrolizin-7a(5H)-yl)methoxy)pyrido[4,3-d]pyrimidin-4-yl)-3,8-diazabicyclo[3.2.1] octan-1-carboxylic acid] | > 500 | 50 to 500 |  | 
7 | C#Cc1c(F)ccc2cc(O)cc(-c3ncc4c(N5CC6CCC(C(=O)OC)(C5)N6)nc(OC[C@@]56CCCN5C[C@H](F)C6)nc4c3F)c12 (stereo partly drawn) [Example 23, methyl 3-(7-(8-ethynyl-7-fluoro-3-hydroxynaphthalen-1-yl)-8-fluoro-2-(((2R,7aS)-2-fluorotetrahydro-1H-pyrrolizin-7a(5H)-yl)methoxy)pyrido[4,3-d]pyrimidin-4-yl)-3,8-diazabicyclo[3.2.1] octan-1-carboxylate] | 50 to 500 | 50 to 500 |  | 
8 | C#Cc1c(F)ccc2cc(O)cc(-c3ncc4c(N5CC6CCC(CN(C)C)(C5)N6)nc(OC[C@@]56CCCN5C[C@H](F)C6)nc4c3F)c12 (stereo partly drawn) [Example 24, 4-(4-(1-((dimethylamino)methyl)-3,8-diazabicyclo[3.2.1]octan-3-yl)-8-fluoro-2-(((2R,7aS)-2-fluorotetrahydro-1H-pyrrolizin-7a(5H)-yl)methoxy)pyrido[4,3-d]pyrimidin-7-yl)-5-ethynyl-6-fluoronaphthalen-2-ol] | < 50 | 50 to 500 |  | 
9 | C#Cc1c(F)ccc2cc(O)cc(-c3ncc4c(N5CC6CCC(CN(C)C(C)=O)(C5)N6)nc(OC[C@@]56CCCN5C[C@H](F)C6)nc4c3F)c12 (stereo partly drawn) [Example 25, N-((3-(7-(8-ethynyl-7-fluoro-3-hydroxynaphthalen-1-yl)-8-fluoro-2-(((2R,7aS)-2-fluorotetrahydro-1H-pyrrolizin-7a(5H)-yl)methoxy)pyrido[4,3-d]pyrimidin-4-yl)-3,8-diazabicyclo[3.2.1]octan-1-yl)methyl)-N-methylacetamide] | > 500 | 50 to 500 |  | 
10 | C#Cc1c(F)ccc2cc(O)cc(-c3ncc4c(N5CC6CCC(/C=C\F)(C5)N6)nc(OC[C@@]56CCCN5C[C@H](F)C6)nc4c3F)c12 (stereo partly drawn) [Example 27, 5-ethynyl-6-fluoro-4-(8-fluoro-2-(((2R,7aS)-2-fluorotetrahydro-1H-pyrrolizin-7a(5H)-yl)methoxy)-4-(1-((Z)-2-fluorovinyl)-3,8-diazabicyclo[3.2.1]octan-3-yl)pyrido[4,3-d]pyrimidin-7-yl) naphthalen-2-ol] |  |  | 11 | 54
11 | C#Cc1c(F)ccc2cc(O)cc(-c3ncc4c(N5CC6CCC(/C=C/F)(C5)N6)nc(OC[C@@]56CCCN5C[C@H](F)C6)nc4c3F)c12 (stereo partly drawn) [Example 28, 5-ethynyl-6-fluoro-4-(8-fluoro-2-(((2R,7aS)-2-fluorotetrahydro-1H-pyrrolizin-7a(5H)-yl)methoxy)-4-(1-((E)-2-fluorovinyl)-3,8-diazabicyclo[3.2.1]octan-3-yl)pyrido[4,3-d]pyrimidin-7-yl) naphthalen-2-ol] | < 50 | 50 to 500 |  | 
12 | C#Cc1c(F)ccc2cc(O)cc(-c3ncc4c(N5CC6CCC(/C=C\C)(C5)N6)nc(OC[C@@]56CCCN5C[C@H](F)C6)nc4c3F)c12 (stereo partly drawn) [Example 29, 5-ethynyl-6-fluoro-4-(8-fluoro-2-(((2R,7aS)-2-fluorotetrahydro-1H-pyrrolizin-7a(5H)-yl)methoxy)-4-(1-((Z)-prop-1-en-1-yl)-3,8-diazabicyclo[3.2.1]octan-3-yl)pyrido[4,3-d]pyrimidin-7-yl)naphthalen-2-ol] | < 50 | 50 to 500 |  | 
13 | C#Cc1c(F)ccc2cc(O)cc(-c3ncc4c(N5CC6CCC(CC(=O)OC)(C5)N6)nc(OC[C@@]56CCCN5C[C@H](F)C6)nc4c3F)c12 (stereo partly drawn) [Example 34, Methyl 2-(3-(7-(8-ethynyl-7-fluoro-3-hydroxynaphthalen-1-yl)-8-fluoro-2-(((2R,7aS)-2-fluorohexahydro-1H-pyrrolizin-7a-yl)methoxy)pyrido[4,3-d]pyrimidin-4-yl)-3,8-diazabicyclo[3.2.1]octan-1-yl)acetate] | 50 to 500 | < 50 |  | 
14 | [2H]C([2H])([2H])OCC12CCC(CN(c3nc(OC[C@@]45CCCN4C[C@H](F)C5)nc4c(F)c(-c5cc(O)cc6ccc(F)c(C#C)c56)nc(OC)c34)C1)N2 (stereo partly drawn) [Example 36, 5-ethynyl-6-fluoro-4-(8-fluoro-2-(((2R,7aS)-2-fluorotetrahydro-1H-pyrrolizin-7a(5H)-yl)methoxy)-5-methoxy-4-(1-((methoxy-d3)methyl)-3,8-diazabicyclo[3.2.1]octan-3-yl)pyrido[4,3-d]pyrimidin-7-yl)naphthalen-2-ol] | 50 to 500 | 50 to 500 |  | 
15 | [2H]C([2H])([2H])OC[C@]12CC[C@H](CN(c3nc(OC[C@@]45CCCN4C[C@H](F)C5)nc4c(F)c(-c5cc(O)cc6ccc(F)c(C#C)c56)nc(OCC)c34)C1)N2 [Example 37, 4-(5-ethoxy-8-fluoro-2-(((2R, 7aS)-2-fluorotetrahydro-1H-pyrrolizin-7a(5H)-yl)methoxy)-4-((1S,5R)-1-((methoxy-d3)methyl)-3,8-diazabicyclo [3.2.1]octan-3-yl)pyrido [4,3-d]pyrimidin-7-yl)-5-ethynyl-6-fluoronaphthalen-2-ol] | < 50 | 50 to 500 |  | 
